Source: the NIST ThermoML archive (doi:10.1016/j.fluid.2014.04.002)

Assay: xn = mol fraction of the nth substance listed
Settings: 101 kPa, Liquid; for viscosity: Concentric cylinders viscometry; for mass density: Vibrating tube method

CCOC(=O)C(C)O (stereo not drawn) [DL-ethyl lactate] + CC(O)CO
Settings	mass density [kg/m3]	viscosity [mPa·s]
288.15 K, x1 = 0.1	1039.89	49.88
288.15 K, x1 = 0.2	1039.87	30.87
288.15 K, x1 = 0.3	1039.88	21.2
288.15 K, x1 = 0.3999	1039.91	14.75
288.15 K, x1 = 0.4998	1039.94	10.62
288.15 K, x1 = 0.599	1039.96	7.616
288.15 K, x1 = 0.6999	1039.9	6.169
288.15 K, x1 = 0.7994	1039.72	4.764
288.15 K, x1 = 0.8997	1039.32	4.114
288.15 K, x1 = 1	1039.28	3.207
293.15 K, x1 = 0.1	1036.36	36.91
293.15 K, x1 = 0.2	1035.81	23.41
293.15 K, x1 = 0.3	1035.6	16.34
293.15 K, x1 = 0.3999	1035.44	11.64
293.15 K, x1 = 0.4998	1035.3	8.236
293.15 K, x1 = 0.599	1035.15	6.227
293.15 K, x1 = 0.6999	1034.93	5.098
293.15 K, x1 = 0.7994	1034.57	4.153
293.15 K, x1 = 0.8997	1034.01	3.478
293.15 K, x1 = 1	1033.84	2.75
298.15 K, x1 = 0.1	1032.13	27.72
298.15 K, x1 = 0.2	1031.64	18.11
298.15 K, x1 = 0.3	1031.2	12.87
298.15 K, x1 = 0.3999	1030.83	9.303
298.15 K, x1 = 0.4998	1030.52	6.75
298.15 K, x1 = 0.599	1030.23	5.172
298.15 K, x1 = 0.6999	1029.94	4.274
298.15 K, x1 = 0.7994	1029.58	3.521
298.15 K, x1 = 0.8997	1029.08	2.978
298.15 K, x1 = 1	1028.39	2.39
303.15 K, x1 = 0.1	1028.31	21.49
303.15 K, x1 = 0.2	1027.6	14.26
303.15 K, x1 = 0.3	1026.98	10.37
303.15 K, x1 = 0.3999	1026.44	7.605
303.15 K, x1 = 0.4998	1025.95	5.615
303.15 K, x1 = 0.599	1025.46	4.35
303.15 K, x1 = 0.6999	1024.89	3.632
303.15 K, x1 = 0.7994	1024.21	3.021
303.15 K, x1 = 0.8997	1023.32	2.582
303.15 K, x1 = 1	1022.92	2.097
308.15 K, x1 = 0.1	1024.23	16.84
308.15 K, x1 = 0.2	1023.36	11.41
308.15 K, x1 = 0.3	1022.6	8.434
308.15 K, x1 = 0.3999	1021.9	6.292
308.15 K, x1 = 0.4998	1021.21	4.739
308.15 K, x1 = 0.599	1020.5	3.704
308.15 K, x1 = 0.6999	1019.72	3.118
308.15 K, x1 = 0.7994	1018.88	2.626
308.15 K, x1 = 0.8997	1017.93	2.259
308.15 K, x1 = 1	1017.42	1.858
313.15 K, x1 = 0.1	1020.4	13.41
313.15 K, x1 = 0.2	1019.26	9.264
313.15 K, x1 = 0.3	1018.24	6.949
313.15 K, x1 = 0.3999	1017.32	5.27
313.15 K, x1 = 0.4998	1016.47	4.04
313.15 K, x1 = 0.599	1015.64	3.187
313.15 K, x1 = 0.6999	1014.75	2.706
313.15 K, x1 = 0.7994	1013.74	2.302
313.15 K, x1 = 0.8997	1012.53	1.995
313.15 K, x1 = 1	1011.9	1.658
318.15 K, x1 = 0.1	1016.39	10.83
318.15 K, x1 = 0.2	1015.04	7.619
318.15 K, x1 = 0.3	1013.82	5.804
318.15 K, x1 = 0.3999	1012.72	4.465
318.15 K, x1 = 0.4998	1011.69	3.482
318.15 K, x1 = 0.599	1010.69	2.767
318.15 K, x1 = 0.6999	1009.63	2.368
318.15 K, x1 = 0.7994	1008.46	2.034
318.15 K, x1 = 0.8997	1007.1	1.774
318.15 K, x1 = 1	1006.36	1.491
323.15 K, x1 = 0.1	1012.34	8.86
323.15 K, x1 = 0.2	1010.78	6.34
323.15 K, x1 = 0.3	1009.36	4.904
323.15 K, x1 = 0.3999	1008.08	3.824
323.15 K, x1 = 0.4998	1006.88	3.03
323.15 K, x1 = 0.599	1005.71	2.423
323.15 K, x1 = 0.6999	1004.48	2.09
323.15 K, x1 = 0.7994	1003.15	1.81
323.15 K, x1 = 0.8997	1001.64	1.589
323.15 K, x1 = 1	1000.79	1.349
